Experiments:
FGFR4 = FGFR4 (Homo sapiens, UniProt P22455); assay: Activity inhibition for FGFR4 kinase (Z′-LYTE biochemical assay, Invitrogen SelectScreen); details: ATP concentration based on Km
Method: (§1) For the synthesized compounds, inhibitory activity for FGFR1, 2, 3, 4 kinase was measured. Activity measurement was carried out by requesting to SelectScreen® Biochemical Kinase Profiling Service of Invitrogen. A Z′-LYTE® biochemical assay method was used, and the ATP concentration was set based on the Km value.

FGFR1 = FGFR1 (Homo sapiens, UniProt P11362); assay: Activity inhibition for FGFR1 kinase (Z′-LYTE biochemical assay, Invitrogen SelectScreen); details: ATP concentration based on Km
Method: as §1

HUH7 cells = assay: Proliferation inhibitory effect for HUH7 cells (SRB assay); assay type: cell-based; details: Homo sapiens, Huh-7, 72 hours, GI50, read-out: IC50 HUH7 Cell Line
Method: Test Example 2: Measuring Inhibitory Effect of FGFR Inhibitor Using Cell Line
The test was carried out for identifying a proliferation inhibitory effect of the compound of the present invention for HUH7 cells. HUH7 cell lines were counted and 5.0×10^3 cells were inoculated per well in a 96 well plate. After the innoculation, the cells were cultured for 24 hours in a 37 □ and 5% carbon dioxide (CO2) incubator. On the next day, the synthesized compounds were each diluted and prepared. The diluted compounds were introduced to the cell lines inoculated the previous day by concentrations, and reacted for 72 hours in a 37 □ and 5% carbon dioxide (CO2) incubator. However, to a positive control to which the compound was not added, 0.1% dimethyl sulfoxide (DMSO) diluted with a medium was introduced. To a negative control plate, a trichloroacetic acid (TCA) solution was introduced, and fixed at 4 □. After reacting for 72 hours, the medium including the compound was removed, a TCA solution was added thereto, and the cells were fixed for 30 minutes to 60 minutes at 4 □. The TCA solution was discarded, the plate was washed off with distilled water and then dried in the air. A 0.4% sulforhodamin B (SRB) solution was added to the plate and dyed for 10 minutes at room temperature. The plate was washed off with tap water including a 1% acetic acid solution, and then dried in the air. A 10 mM Trizma base solution was added to dissolve the solid SRB. Using a microplate reader, optical density (O.D. value) was measured at 540 nm. A GI50 value of each of the compounds was calculated using GraphPad Prism V6.0 Software.

Chain of FGFR1 (P11362 22-822): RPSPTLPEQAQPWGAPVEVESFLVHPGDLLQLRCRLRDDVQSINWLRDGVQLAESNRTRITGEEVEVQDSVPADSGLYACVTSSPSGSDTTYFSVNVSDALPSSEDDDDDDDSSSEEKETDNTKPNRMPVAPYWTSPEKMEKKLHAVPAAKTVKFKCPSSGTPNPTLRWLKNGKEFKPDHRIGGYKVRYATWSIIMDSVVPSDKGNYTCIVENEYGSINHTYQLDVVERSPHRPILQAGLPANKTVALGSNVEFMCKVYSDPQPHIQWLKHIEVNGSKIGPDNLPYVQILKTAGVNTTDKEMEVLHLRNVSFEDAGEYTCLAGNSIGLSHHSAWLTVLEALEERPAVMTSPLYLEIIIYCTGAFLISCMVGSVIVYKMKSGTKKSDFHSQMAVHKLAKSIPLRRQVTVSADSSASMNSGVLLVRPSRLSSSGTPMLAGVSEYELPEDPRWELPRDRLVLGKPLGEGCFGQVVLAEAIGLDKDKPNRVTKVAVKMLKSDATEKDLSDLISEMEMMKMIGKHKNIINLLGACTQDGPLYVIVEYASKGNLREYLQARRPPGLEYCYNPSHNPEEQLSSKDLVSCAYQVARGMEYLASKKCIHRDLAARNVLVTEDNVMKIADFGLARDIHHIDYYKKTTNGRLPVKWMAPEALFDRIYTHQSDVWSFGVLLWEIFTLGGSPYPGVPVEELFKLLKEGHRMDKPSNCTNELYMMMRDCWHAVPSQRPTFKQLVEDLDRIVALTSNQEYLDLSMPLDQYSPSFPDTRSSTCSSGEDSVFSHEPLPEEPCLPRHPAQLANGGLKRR
Chain of FGFR4 (P22455 22-802): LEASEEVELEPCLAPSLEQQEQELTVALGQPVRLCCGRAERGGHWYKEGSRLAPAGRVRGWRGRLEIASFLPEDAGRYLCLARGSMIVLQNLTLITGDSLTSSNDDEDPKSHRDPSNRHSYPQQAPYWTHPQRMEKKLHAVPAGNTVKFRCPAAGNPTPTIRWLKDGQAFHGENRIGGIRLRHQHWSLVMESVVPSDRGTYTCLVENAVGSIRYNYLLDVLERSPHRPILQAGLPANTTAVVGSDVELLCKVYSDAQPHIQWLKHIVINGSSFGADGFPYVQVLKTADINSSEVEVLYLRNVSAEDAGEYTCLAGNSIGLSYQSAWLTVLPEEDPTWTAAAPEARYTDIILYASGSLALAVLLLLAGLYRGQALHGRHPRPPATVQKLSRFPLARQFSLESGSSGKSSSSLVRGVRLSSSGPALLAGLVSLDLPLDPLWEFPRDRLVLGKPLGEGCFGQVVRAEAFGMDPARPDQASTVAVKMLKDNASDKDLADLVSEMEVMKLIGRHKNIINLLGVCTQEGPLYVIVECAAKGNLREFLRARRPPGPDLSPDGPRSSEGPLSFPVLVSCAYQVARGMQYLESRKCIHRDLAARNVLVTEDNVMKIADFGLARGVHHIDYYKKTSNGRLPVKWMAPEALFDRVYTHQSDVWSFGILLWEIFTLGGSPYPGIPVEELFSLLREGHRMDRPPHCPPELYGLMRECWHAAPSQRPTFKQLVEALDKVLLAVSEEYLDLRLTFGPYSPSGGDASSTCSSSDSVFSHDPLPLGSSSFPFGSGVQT

Row | SMILES | IC50 (FGFR4) [nM] | IC50 (FGFR1) [nM] | IC50 (HUH7 cells) [nM]
1 | C=CC(=O)Nc1cc(N2CCS(=O)(=O)CC2)ccc1Nc1ncc2cc(-c3c(Cl)c(OC)cc(OC)c3Cl)c3nccn3c2n1 [compound 36] | < 50 | < 50 | < 50
2 | C=CC(=O)Nc1cc(N2CCNCC2)ccc1Nc1ncc2cc(-c3c(Cl)c(OC)cc(OC)c3Cl)c3nccn3c2n1 [compound 39] | < 50 | < 50 | < 50
3 | C=CC(=O)Nc1cc(N2CC[C@H](N(C)C)C2)ccc1Nc1ncc2cc(-c3c(Cl)c(OC)cc(OC)c3Cl)c3nccn3c2n1 [compound 48] | < 50 | < 50 | < 50
4 | C=CC(=O)Nc1cc(OC2CCCC2)ccc1Nc1ncc2cc(-c3c(Cl)c(OC)cc(OC)c3Cl)c3nccn3c2n1 [compound 54] | 50 to 500 | > 500 | 50 to 500
5 | C=CC(=O)Nc1cc(N2CCOCC2)cc(C)c1Nc1ncc2cc(-c3c(Cl)c(OC)cc(OC)c3Cl)c3nccn3c2n1 [compound 63] | < 50 | 50 to 500 | 50 to 500

Continued, values first:

Row | IC50 (FGFR4) [nM] | IC50 (FGFR1) [nM] | IC50 (HUH7 cells) [nM] | SMILES
6 | < 50 | < 50 | < 50 | C=CC(=O)Nc1cc(N2CCN(S(C)(=O)=O)CC2)ccc1Nc1ncc2cc(-c3c(Cl)c(OC)cc(OC)c3Cl)c3nccn3c2n1 [compound 35]
7 | < 50 | < 50 | < 50 | C=CC(=O)Nc1cc(N2CC(OC)C2)ccc1Nc1ncc2cc(-c3c(Cl)c(OC)cc(OC)c3Cl)c3nccn3c2n1 [compound 37]
8 | < 50 | < 50 | < 50 | C=CC(=O)Nc1cc(N2C[C@@H](C)O[C@@H](C)C2)ccc1Nc1ncc2cc(-c3c(Cl)c(OC)cc(OC)c3Cl)c3nccn3c2n1 [compound 38]
9 | < 50 | < 50 | < 50 | C=CC(=O)Nc1cc(N2CCN(C)CC2)ccc1Nc1ncc2cc(-c3c(Cl)c(OC)cc(OC)c3Cl)c3nccn3c2n1 [compound 52]
10 | 50 to 500 | > 500 | 50 to 500 | C=CC(=O)Nc1cc(C)cc(C)c1Nc1ncc2cc(-c3c(Cl)c(OC)cc(OC)c3Cl)c3nccn3c2n1 [compound 58]
11 | < 50 | < 50 | < 50 | C=CC(=O)Nc1cc(N2CCOCC2)c(C)cc1Nc1ncc2cc(-c3c(Cl)c(OC)cc(OC)c3Cl)c3nccn3c2n1 [compound 61]
12 | < 50 | < 50 | < 50 | C=CC(=O)Nc1cc(N2CCN(CC)CC2)ccc1Nc1cc2c(cn1)cc(-c1c(Cl)c(OC)cc(OC)c1Cl)c1nccn12 [compound 85]

Source: patent US10696675B2, “Imidazopyridopyrimidine derivative compound and use thereof” (HANMI PHARMACEUTICAL CO., LTD., priority 2016, dated 2020)
